{"source": "patent US20230357261A1", "about": "“ARYL HYDROCARBON RECEPTOR LIGANDS AND THEIR ANALOGUES FOR THE PREVENTION AND TREATMENT OF INFLAMMATORY DISORDERS” (The Johns Hopkins University, priority 2020, published 2023)", "key": {"TLR4": {"test_system": "TLR4", "assay": "TLR4 signaling in mouse ileal enteroids (LPS-induced Tnf-a qRT-PCR)", "format": "cell-based", "conditions": "wildtype mouse enteroids; tested compound 40 uM overnight, then LPS 50 μg/mL 6 hours", "experimental": "(§1) Primary intestinal crypt cultures (enteroids) were generated from the ileum of neonatal (p7-p11) wild type and Ahr′ mice at as described, Neal et al., 2012, and maintained in Matrigel (Corning). The enteroids were digested and passed using TrypLE Express (Gibco) weekly, and used between passage 3 and 10 for all experiments. The enteroids were pre-treated with I3C ([…], 12 h), A18 (20 μM, 12 h) or human breast milk (100 μL/mL, Innovative Research, prepared by 5-minute-cenrifugation at 12,000 g and then filtration of supernatant through a 0.22-μm filter) and then treated with LPS (50 μg/mL) for 4 hours for further analysis.\n(§2) Primary intestinal crypt cultures (enteroids) were generated from the ileum of neonatal (p7-p11) mice at as described, Neal et al., 2012, and maintained in Matrigel (Corning). The enteroids were digested and passed using TrypLE Express (Gibco) weekly, and used between passage 3 and 10 for all experiments. The enteroids were pre-treated with tested compound (40 uM, overnight) and then treated with LPS (50 μg/mL) for 6 hours for further analysis.\n(§3) Total RNA was isolated using the RNeasy mini kit (Qiagen) and complementary DNA was synthesized from 0.5 μg RNA using QuantiTect Reverse Transcription kit (Qiagen) following the manufacturer's protocols. The mRNA quantification was performed on the Bio-Rad CFX96 Real-Time System (Bio-Rad) using iTaq™ universal SYBR® Green supermix (Bio-Rad) and the primers listed in Table 2. The relative mRNA expression levels were normalized against the expression of the housekeeping gene ribosomal protein lateral stalk subunit P0 (Rplp0)."}, "AHR [1]": {"test_system": "AHR", "assay": "AHR activation (Cyp1a1) in ileum of mice in the NEC model (Example 3)", "format": "in vivo", "conditions": "mouse NEC model; 20 mg/kg/day by oral gavage for 4 days", "source_text": "(§4) Experimental NEC was induced in 7-day old mice as we have previously described, Good et al., 2015; Sodhi et al., 2018; Egan et al., 2016, by gavage feeding newborn mice with formula containing Similac Advance infant formula (Abbott Nutrition): Esbilac (PetAg) canine milk replacer, 2:1 ratio, which was supplemented with enteric bacteria made from a stock created from a specimen obtained from an infant with surgical NEC five times per day.\n(§5) Additionally, the mice were subjected to hypoxia (5% 02-95% N2) for 10 min in a hypoxia chamber (Billups-Rothenberg) twice daily for 4 days. The compound #169, compound #243, compound #247 or compound #263 administered by oral gavage during the induction of NEC at the dose of 20 mg/kg body weight/day.\n(§6) Age-matched breast milk-fed mouse pups were used as healthy controls. Evaluation of ileal histology by H&E staining and expression of pro-inflammatory cytokines by qRT-PCR at a fixed point in the terminal ileum 2-cm proximal to the cecum, were used to determine the disease severity.\nas §3"}, "AHR [2]": {"test_system": "AHR", "assay": "AHR activation in mouse ileal enteroids (Cyp1a1 qRT-PCR)", "format": "cell-based", "conditions": "wildtype mouse enteroids, tested compound 40 uM, overnight", "experimental": "as §1, §2, §3"}, "mouse NEC model": {"test_system": "mouse NEC model", "assay": "Experimental NEC in newborn mice (Example 3)", "format": "in vivo", "conditions": "20 mg/kg body weight/day for 4 days; for severity of NEC: 20 mg/kg/day", "source_text": "as §4, §5, §6, §3"}}, "note": "Entries after “also recorded” stand apart in the source; their conditions may differ.", "data": [{"compound": "Cc1c(OCC(F)(F)F)ccnc1CSc1nc2ccc(C#N)cc2[nH]1", "note": "[compound 19, 5-cyano-2-(((3-methyl-4-(2,2,2-trifluoroethoxy)pyridin-2-yl)methyl)thio)-1H-benzo[d]-imidazole]", "values": [{"measurement": "melting point", "result": "204 to 205", "unit": "°C"}]}, {"compound": "CCOc1ccnc(CSc2nc3ccc(F)cc3[nH]2)c1C", "note": "[compound 21, 5-fluoro-2-(((3-methyl-4-ethoxypyridin-2-yl)methyl)thio)-1H-benzo[d]imidazole]", "values": [{"measurement": "melting point", "result": "102 to 104", "unit": "°C"}]}, {"compound": "COc1ccnc(CS(=O)(=O)c2nc3cc(F)ccc3[nH]2)c1C", "note": "[compound 26, 5-fluoro-2-(((3-methyl-4-methoxypyridin-2-yl)methyl)sulfonyl)-1H-benzo[d]-imidazole]", "values": [{"measurement": "melting point", "result": "192 to 193", "unit": "°C"}]}, {"compound": "CCOc1ccnc(CS(=O)(=O)c2nc3ccc(F)cc3[nH]2)c1C", "note": "[compound 27, 5-fluoro-2-(((3-methyl-4-ethoxypyridin-2-yl)methyl)sulfonyl)-1H-benzo[d]-imidazole]", "values": [{"measurement": "melting point", "result": "177 to 178", "unit": "°C"}]}, {"compound": "Cc1ccc2nc(S(=O)(=O)Cc3nccc(OCC(F)(F)F)c3C)[nH]c2c1", "note": "[compound 25, 5-methyl-2-(((3-methyl-4-(2,2,2-trifluoroethoxy)pyridin-2-yl)methyl)sulfonyl)-1H-benzo[d]-imidazole]", "values": [{"measurement": "melting point", "result": "193 to 194", "unit": "°C"}]}, {"compound": "c1ccc2[nH]c(COc3ncnc4ccccc34)nc2c1", "note": "[compound #247]", "values": [{"measurement": "inhibition of TLR4 signaling in mouse enteroids (Tnf-a induction by LPS, FIG. 15b, FIG. 19)", "setting": "TLR4", "result": "significantly inhibited TLR4 signaling"}, {"measurement": "expression of Cyp1a1 in vivo (ileum)", "setting": "AHR [1]", "result": "significantly induced the expression of Cyp1a1"}, {"measurement": "activation of AHR signaling in mouse enteroids (Cyp1a1, FIG. 15a)", "setting": "AHR [2]", "result": "activated AHR signaling"}, {"measurement": "histological injury (H&E, ileum)", "setting": "mouse NEC model", "result": "reduced histological injury"}, {"measurement": "severity of NEC", "setting": "mouse NEC model", "result": "did not reduce the severity of NEC; also recorded: didn't not reduce the severity of NEC"}]}, {"compound": "Cc1ccc2nc([S+]([O-])Cc3nccc(OCC(F)(F)F)c3C)[nH]c2c1", "note": "(stereo not shown) [compound 24, 5-methyl-2-(((3-methyl-4-(2,2,2-trifluoroethoxy)pyridin-2-yl)methyl)sulfinyl)-1H-benzo[d]-imidazole]", "values": [{"measurement": "melting point", "result": "> 133 °C (dec.)"}]}, {"compound": "Cc1ccc2nc(SCc3nccc(OCC(F)(F)F)c3C)[nH]c2c1", "note": "[compound 18, 5-methyl-2-(((3-methyl-4-(2,2,2-trifluoroethoxy)pyridin-2-yl)methyl)thio)-1H-benzo[d]imidazole]", "values": [{"measurement": "melting point", "result": "153 to 155", "unit": "°C"}]}, {"compound": "Cc1c(OCc2ccccc2)ccnc1CS(=O)(=O)c1nc2ccc(F)cc2[nH]1", "note": "[compound 29, 5-fluoro-2-(((3-methyl-4-benzyloxypyridin-2-yl)methyl)sulfonyl)-1H-benzo[d]-imidazole]", "values": [{"measurement": "melting point", "result": "185 to 188", "unit": "°C"}]}, {"compound": "N#C/C(=C(/N)c1ncnc2ccccc12)c1nc2ccccc2[nH]1", "note": "[compound #263]", "values": [{"measurement": "inhibition of TLR4 signaling in mouse enteroids (Tnf-a induction by LPS, FIG. 15b, FIG. 19)", "setting": "TLR4", "result": "significantly inhibited the TLR4 signaling"}, {"measurement": "expression of Cyp1a1 in vivo (ileum)", "setting": "AHR [1]", "result": "significantly induced the expression of Cyp1a1"}, {"measurement": "expression of IL-1b, IL-6, Tnf-a and Lcn2 in the intestinal epithelium", "setting": "mouse NEC model", "result": "reduced expression"}, {"measurement": "histological injury (H&E, ileum)", "setting": "mouse NEC model", "result": "reduced histological injury"}, {"measurement": "severity of NEC", "setting": "mouse NEC model", "result": "significantly reduced the severity of experimental NEC; also recorded: protects against experimental NEC"}]}, {"compound": "c1ccc2[nH]c(CSc3ncnc4ccccc34)nc2c1", "values": [{"measurement": "melting point", "result": "198 to 200 °C (dec.)"}]}, {"compound": "Cc1cc2c(=O)n(Cc3ccco3)c(SCc3nc4ccccc4[nH]3)nc2s1", "note": "[compound #169]", "values": [{"measurement": "inhibition of TLR4 signaling in mouse enteroids (Tnf-a induction by LPS, FIG. 15b, FIG. 19)", "setting": "TLR4", "result": "significantly inhibited TLR4 signaling"}, {"measurement": "expression of Cyp1a1 in vivo (ileum)", "setting": "AHR [1]", "result": "did not induce the expression of Cyp1a1"}, {"measurement": "activation of AHR signaling in mouse enteroids (Cyp1a1, FIG. 15a)", "setting": "AHR [2]", "result": "activated AHR"}, {"measurement": "activation of AHR signaling in mouse enteroids (Cyp1a1, FIG. 15a)", "setting": "AHR [2]; listed as #169", "result": "activated AHR signaling"}, {"measurement": "histological injury (H&E, ileum)", "setting": "mouse NEC model", "result": "reduced histological injury"}, {"measurement": "severity of NEC", "setting": "mouse NEC model", "result": "did not reduce the severity of NEC; also recorded: didn't not reduce the severity of NEC"}]}, {"compound": "COc1ccnc(CSc2nc3ccc(F)cc3[nH]2)c1C", "note": "[compound 20, 5-fluoro-2-(((3-methyl-4-methoxypyridin-2-yl)methyl)thio)-1H-benzo[d]imidazole]", "values": [{"measurement": "melting point", "result": "153 to 155", "unit": "°C"}]}, {"compound": "c1ccc2[nH]c(CSc3ncnc4ccccc34)nc2c1", "note": "[compound #243]", "values": [{"measurement": "inhibition of TLR4 signaling in mouse enteroids (Tnf-a induction by LPS, FIG. 15b, FIG. 19)", "setting": "TLR4", "result": "significantly inhibited TLR4 signaling"}, {"measurement": "expression of Cyp1a1 in vivo (ileum)", "setting": "AHR [1]", "result": "did not induce the expression of Cyp1a1"}, {"measurement": "activation of AHR signaling in mouse enteroids (Cyp1a1, FIG. 15a)", "setting": "AHR [2]", "result": "activated AHR signaling"}, {"measurement": "histological injury (H&E, ileum)", "setting": "mouse NEC model", "result": "reduced histological injury"}, {"measurement": "severity of NEC", "setting": "mouse NEC model", "result": "did not reduce the severity of NEC; also recorded: didn't not reduce the severity of NEC"}]}, {"compound": "Cc1c(Oc2ccccc2)ccnc1CSc1nc2ccc(F)cc2[nH]1", "note": "[compound 22, 5-fluoro-2-(((3-methyl-4-phenoxypyridin-2-yl)methyl)thio)-1H-benzo[d]imidazole]", "values": [{"measurement": "melting point", "result": "134 to 136", "unit": "°C"}]}, {"compound": "Cc1c(OCc2ccccc2)ccnc1CSc1nc2ccc(F)cc2[nH]1", "note": "[compound 23, 5-fluoro-2-(((3-methyl-4-benzyloxypyridin-2-yl)methyl)thio)-1H-benzo[d]-imidazole]", "values": [{"measurement": "melting point", "result": "175 to 177", "unit": "°C"}]}, {"compound": "Cc1c(Oc2ccccc2)ccnc1CS(=O)(=O)c1nc2ccc(F)cc2[nH]1", "note": "[compound 28, 5-fluoro-2-(((3-methyl-4-phenoxypyridin-2-yl)methyl)sulfonyl)-1H-benzo[d]-imidazole]", "values": [{"measurement": "melting point", "result": "155 to 157", "unit": "°C"}]}]}
